Test results from publication PMC2951365, “Structural Transformation of the Tandem Ubiquitin-Interacting Motifs in Ataxin-3 and Their Cooperative Interactions with Ubiquitin Chains” (PLoS ONE, 2010).
Where two headings read alike, the source gives them in different places.

Columns and labels:
[1] = target: T1, Ub (Homo sapiens, UniProt P0CG48); conditions: cited from earlier work
T1 construct: gene UBC; 15N-labeled Ub; cDNA encoding Ub cloned into pET-3a, expressed in E. coli
Excerpt: (§1) There are about 20∼50 residues inserted in between two UIMs of S5a and Vps27, but the linker region between the two UIMs of AT3 is very short. These adjoining UIM motifs in AT3 raise a possible cooperativity for binding with Ub. Our structure determination and titration experiments reveal that the individual UIMs of AT3 can bind Ub respectively but with lower affinities. […] It seems that the cooperative interaction of AT3-UIM12 with diUb or polyUb is more remarkable than that with monoUb (Supplemental Fig. S7). […] Therefore, the altered affinities of AT3-UIM12 for monoUb or diUb may result from structural transformation of the linker region. The backbone dynamics provides further evidence for the conformational change in the linker region, which possibly allows cooperative interaction with Ub.

[2] = target: Ub; conditions: cited from earlier work
Excerpt: as §1

[3] = target: T1, Ub; conditions: read-out: K D,app
Experimental: ^15N-Ub at a molar concentration of ∼0.2 mM was titrated with increasing amount of UIM peptides or its mutants. A series of ^1H-^15N HSQC spectra of Ub were obtained and the chemical shift changes were measured for each molar ratio. […] The combined average chemical shift changes (Δδave) were calculated as Δδave = [(0.2*ΔδN)^ 2 + (ΔδHN)^ 2]^1/2, where ΔδHN and ΔδN are the chemical shift changes in the ^1H and ^15N dimensions, respectively. […] The dissociation constant (K D) for the UIM-Ub binding was obtained by fitting the titration curves [61].
^15N- or ^15N/^13C-labeled samples (∼1 mM) were dissolved in a PBS buffer (20 mM phosphate, 100 mM NaCl, pH 6.5) containing 8% or 100% D2O and 0.02% (w/v) NaN3. […] All the NMR experiments were performed at 25°C on a Varian UNITY INOVA 600 MHz spectrometer equipped with three RF channels and a triple-resonance pulsed-field gradient probe.

Row | Substance | Kd [1] | Kd [2] | further results
1 | S5a UIM1 (210–230 in alignment); construct not told | ~350 µM |  | 
2 | S5a UIM2 (281–301 in alignment); construct not told | 73 µM |  | 
3 | Vps27p UIM1 (257–277 in alignment); construct not told |  | 277 µM | 
4 | Vps27p UIM2 (300–320 in alignment); construct not told |  | 117 µM | 
5 | ataxin-3 residues 335–354; GB1 fusion [AT3-UIM3] |  |  | Kd [3]: > 3000 µM
